Entries after “also recorded” stand apart in the source; their conditions may differ. Where no end group is shown, it is not given here.

Series [1] has as its system Staphylococcus aureus (ATCC strain 6538P). The series is classed as cell-based. The settings on record: ATCC strain 6538P. The procedure: (§1) Bacterial Stocks—ATCC derived stock bacteria were obtained from Oxoid Limited. Pseudomonas aeruginosa (ATCC strain 9027) or Staphylococcus aureus (ATCC strain 6538P) were obtained in ‘Cultiloop’ format. Stocks were prepared by inoculating 20 ml of LB broth with a single Cultiloop, and incubating overnight at 37° C. Cells present after overnight incubation were harvested by removing larger aggregates by centrifugation (3000 g, 10 minutes), and withdrawing 16 ml of the supernatant, which was likely to contain mainly planktonic bacteria. To this, 4 ml of sterile glycerol was added (the latter having been sterilised by autoclaving). The resultant suspension was divided between 15× 1 ml cryovials before freezing at −85° C.
(§2) Preliminary experiments were carried out to estimate the amount to dilute bacterial stocks which when on addition of 25 μl of diluted stock to 100 μl of fresh LB broth would result in bacteria in log phase growth after overnight incubation at 37° C.
(§3) The peptides were examined for antibacterial efficacy against Staphylococcus aureus. To test the efficacy of peptides, dilutions of test peptides or PBS (for use as a control) were prepared in LB broth, and 100 μl aliquots of these placed in 96-well plates. A vial of planktonic bacterial stock was thawed in a 37° C. incubator and diluted to the level previously determined which would produce log phase growth after overnight incubation (see above). 25 μl of this bacterial dilution was then added to the test wells (some wells containing LB broth without peptide were left without any bacterial inoculation, these being used as a blank). After overnight growth, the concentration of bacteria in individual wells was assessed by measuring absorbance at 620 nm, in a microplate spectrophotometer. The average absorbance of wells for specific concentrations of peptides was calculated, and from this the percentage inhibition (relative to untreated wells) was also calculated and plotted against concentration (along with an estimate of error on that % inhibition).
(§4) The inventor constructed an expanded library of peptides derived from either apolipoprotein B or apolipoprotein E in order to further evaluate polypeptides in accordance with the invention. Further experiments were then conducted to investigate the antibacterial activity of this peptide library against the bacteria P. aeroginosa, S. aureus and S. pneumoniae. The methods used to determine the IC50 values for each peptide were as described in the Example 1.

For series [2], the system named is Pseudomonas aeruginosa (ATCC strain 9027). It is filed as cell-based. The settings on record: for IC50: ATCC strain 9027; for Effectiveness against Pseudomonadales, in particular P. aeruginosa, in words: summary in description. How it is done: as §1, §2, §3
Peptides in accordance with the invention were also examined for antibacterial efficacy against Pseudomonas aeruginosa using the same technique as described above to calculate the IC50 values.
Points were obtained by dividing the average for six treated wells by the average for six untreated wells, and bars show an estimate of the error for these calculated values.
as §4

Another series has as its system Streptococcus pneumoniae. It is filed as cell-based. How it is done:
as §3, with “inhibition). […] The inventor constructed an expanded library of peptides derived from either apolipoprotein B or apolipoprotein E in order to further evaluate polypeptides in accordance with the invention. Further experiments were then conducted to investigate the antibacterial activity of this peptide library against the bacteria P. aeroginosa, S. aureus and S. pneumoniae. The methods used to determine the IC50 values for each peptide were as described in the Example 1.” for “inhibition).”

The test system of series [3] is Staphylococcus aureus, Pseudomonas aeruginosa, and Streptococcus pneumoniae. Kind of series: Antibacterial activity, overall statements over the test bacteria. The series is classed as cell-based.
Source text: The inventors conducted exhaustive experiments to assess the antibacterial activity of peptides from apolipoproteins and derivatives thereof. Peptides and derivatives from ApoE and ApoB were a particular focus. […] Example 1 illustrates the efficacy of the polypeptides according to the invention compared to apoE141-149 and apoB3359-3367 (i.e. non-tandem repeats) and other peptides derived from apolipoproteins.
The activity of polypeptides in accordance with the invention can be seen in Tables 5, 6, 7 and 8.
as §3, §4

For series [4], the system named is Saccharomyces cerevisiae yeast cells (strain GenT01). The series is described as follows: Gentronix GreenScreen GC yeast genotoxicity assay. The settings on record: concentrations up to and including 100 μM, FIGS. 6A-6C. The series is classed as cell-based. How it is done:
A liquid handling robot is used to produce a serial dilution series of each test compound in a 96-well, black microplate with an optically clear base. […] In addition, a series of genotoxic and cytotoxic standards and non-toxic controls are run to provide internal quality control. The plates are covered with a breathable membrane and incubated overnight, without shaking, at 25° C.
After incubation, the microplates are uncovered and data collected using a Tecan Ultra 384 microplate reader. This instrument provides measurements of light absorbance and fluorescence in microplates; a standard fluorescein filter set (excitation 485/25 and emission 535/25) is used. Absorbance is read at 620 nm and is proportional to cell proliferation (which is lowered by toxic analytes). Fluorescence is proportional to the activity of the DNA repair system (increased by genotoxic analytes). The yeast cultures used are a genetically modified strain that express a green fluorescent protein whenever the cells carry out DNA damage repair. Fluorescence is normalised to the absorbance signal to correct for variation in cell yield caused by any cytolytic activity of the test compounds against the yeast cells. This produces a “fluorescence per cell” measurement termed “brightness”. In addition to the Gentronix Assay yeast strain (GenT01), a control Saccharomyces cerevisiae strain (GenC01) is also used, which is identical except for its ability to produce green fluorescent protein is disabled. This strain is used to provide a control to allow correction for substances which may be either autofluorescent themselves or which induce an autofluorescence in the yeast cells. The data collected is simply transferred into a Excel template where result evaluation sheets are automatically produced. The sheets contain the processed results in both a graphical and tabulated format, with automatic assessment of the result, i.e. positive or negative, and calculation of the lowest effective concentration (LEC), for both genotoxicity and cytotoxicity. […]

In another series the test system is bacteria. The settings on record: Peptides, 21: 327-330 (2000); cited from earlier work.

In general, IC50 refers to the concentration at which inhibition is half-maximal. Regarding “RWRKRWRKWRWRKRWRK-NH2 (C-terminus assumed) [MU_32]”, the figures for the IC50 (in series [1]; in series [2]; in the series on Streptococcus pneumoniae) were 15 µM, 12 µM and 46 µM, respectively. Further, the “Antibacterial activity, in words, bacterium not specified” value in series [3] is “particularly effective”.
In the case of “LRKLRKRLL-NH2 (C-terminus assumed) [MU_46]”, the IC50 is 22 µM in series [2] and > 53 µM in the series on Streptococcus pneumoniae.
In the case of “Ac-LRKLRKRLRKLRKR-NH2 (N-terminus and C-terminus assumed) [GIN 08]”, the IC50 in series [2] was 9.2 µM; with Streptococcus pneumoniae, > 53 µM. Besides, the “Effectiveness against Pseudomonadales, in particular P. aeruginosa, in words” value in series [2] was “particularly effective”.
With Ac-WRKWRKRWWLRKLRKRLL-NH2 [GIN 34], the IC50 in series [1] is 7 µM. Moreover, in series [2], the IC50 turned out to be 3 µM and the “Effectiveness against Pseudomonadales, in particular P. aeruginosa, in words” value was “particularly effective”. For the same substance, in series [4], the “Genotoxic response in test yeast strain (GenT01)” value was “failed to produce any genotoxic response”. In addition, the “Antibacterial activity, in words, bacterium not specified” value in series [3] is “particularly effective”.
In the case of “apoE134-155: Azuma's shorter apoE peptide, stated as 18 amino acids in length (RVRLASHLRKLRKRLLRDADDL; UniProt P02649 152-173, looked up, fragment)”, the “Antibacterial activity reported by Azuma et al., in words” value (“Antibacterial activity reported” for short) in the series on bacteria is recorded as “no activity at all”.
Consider “LRWRKRWRKLRWRKRWRK-NH2 (C-terminus assumed) [MU_35]”, for which the figures for the IC50 (in series [1]; in series [2]; with Streptococcus pneumoniae) were 31 µM, 23 µM and 53 µM, respectively.
With “LRVRLASHLRKLRKRLLRDADDLQKRLAVY [apoE133-162, 30-mer monomeric peptide of Azuma et al]”, the “Antibacterial activity reported” value in the series on bacteria is recorded as “comparable with that of the antibiotic gentamicin”.
Regarding “LRWRKRWRKWRWRKRWRK-NH2 (C-terminus assumed) [MU_30]”, the IC50 worked out at 15 µM in series [1], 15 µM in series [2] and 38 µM in the series on Streptococcus pneumoniae. Moreover, the “Antibacterial activity, in words, bacterium not specified” value in series [3] is listed as “particularly effective”.
With “RRWRKRWRKRRWRKRWRK-NH2 (C-terminus assumed) [MU_33]”, the results for the IC50 (in series [1]; in series [2]; with Streptococcus pneumoniae) were 38 µM, > 53 µM and 53 µM, respectively.
As for “RRWRKRWRKWRWRKRWRK-NH2 (C-terminus assumed) [MU_28]”, the IC50 in series [1] stood at 15 µM; in series [2], 11.5 µM; with Streptococcus pneumoniae it was 46 µM. Besides, the “Antibacterial activity, in words, bacterium not specified” value in series [3] is “particularly effective”.
As to “HRWRKRWRKWRWRKRWRK-NH2 (C-terminus assumed) [MU_31]”, the IC50 in series [1] was found to be 17 µM; in series [2], 12 µM; with Streptococcus pneumoniae, 42 µM.
In the series with Streptococcus pneumoniae, Ac-WRWRKRWRKWRWRKRWRK-NH2 [MU_27] had an IC50 of 46 µM. Moreover, in series [4], the “Genotoxic response in test yeast strain (GenT01)” value was “failed to produce any genotoxic response”.
In the case of “apoE134-159: Azuma's shorter apoE peptides, label printed for both a 22 and a 26 amino acid peptide (RVRLASHLRKLRKRLLRDADDLQKRL; UniProt P02649 152-177, looked up, fragment)”, the “Antibacterial activity reported” value in the series with bacteria was “very low antibacterial activity; also recorded: greatly reduced antibacterial activity”.
“HRWRKRWRKHRWRKRWRK-NH2 (C-terminus assumed) [MU_36]”: the IC50 in series [1] is 40 µM; in series [2] it was > 53 µM; with Streptococcus pneumoniae it was > 53 µM.
In the case of “KRWRKRWRKWRWRKRWRK-NH2 (C-terminus assumed) [MU_29]”, the half-inhibitory concentration (IC50) in series [1] came to 23 µM; in series [2] it was 7.5 µM; with Streptococcus pneumoniae it was 52 µM.
For the substance “RRKRRKRRRRRKRRKRRR-NH2 (C-terminus assumed) [MU_16]”, the IC50 (in series [2]; in the series on Streptococcus pneumoniae) was > 53 µM in each case.

Source of the values: patent US8524861B2, “Treatment of bacterial infections” (priority 2004, dated 2013).
